Source: ChEMBL document CHEMBL1152860, “Synthesis and antiproliferative activity of 3-amino-N-phenyl-1H-indazole-1-carboxamides” (2009)
The source made the active and inactive calls. No cut-off for these calls is given here.

Legend:
[1] = tested on: U-251; assay: Growth inhibition of human U251 cells after 48 hrs by SRB assay; assay type: functional; settings: U-251, 48 h
[2] = tested on: SK-MEL-5; assay: Growth inhibition of human SK-MEL-5 cells after 48 hrs by SRB assay; assay type: functional; settings: SK-MEL-5, 48 h
[3] = tested on: HOP-92; assay: Growth inhibition of human HOP92 cells after 48 hrs by SRB assay; assay type: functional; settings: HOP-92, 48 h
[4] = tested on: M14; assay: Growth inhibition of human M14 cells after 48 hrs by SRB assay; assay type: functional; settings: M14, 48 h
[5] = tested on: RPMI-8226; assay: Growth inhibition of human RPMI8226 cells after 48 hrs by SRB assay; assay type: functional; settings: RPMI-8226, 48 h
[6] = tested on: SNB-19; assay: Growth inhibition of human SNB19 cells after 48 hrs by SRB assay; assay type: functional; settings: SNB-19, 48 h
[7] = tested on: A549; assay: Growth inhibition of human A549 cells after 48 hrs by SRB assay; assay type: functional; settings: A549, 48 h
[8] = tested on: CAKI-1; assay: Growth inhibition of human Caki1 cells after 48 hrs by SRB assay; assay type: functional; settings: CAKI-1, 48 h
[9] = tested on: SN12C; assay: Growth inhibition of human SN12C cells after 48 hrs by SRB assay; assay type: functional
[10] = tested on: NCI-H226; assay: Growth inhibition of human NCI-H226 cells after 48 hrs by SRB assay; assay type: functional; settings: NCI-H226, 48 h
[11] = tested on: NCI-H460; assay: Growth inhibition of human NCI-H460 cells after 48 hrs by SRB assay; assay type: functional; settings: NCI-H460, 48 h
[12] = tested on: MCF7; assay: Growth inhibition of human MCF7 cells after 48 hrs by SRB assay; assay type: functional; settings: MCF7, 48 h
[13] = tested on: COLO 205; assay: Growth inhibition of human COLO205 cells after 48 hrs by SRB assay; assay type: functional; settings: COLO 205, 48 h
[14] = tested on: K562; assay: Growth inhibition of human K562 cells after 48 hrs by SRB assay; assay type: functional; settings: K562, 48 h
[15] = tested on: SK-MEL-28; assay: Growth inhibition of human SK-MEL-28 cells after 48 hrs by SRB assay; assay type: functional; settings: SK-MEL-28, 48 h
[16] = tested on: UACC-62; assay: Growth inhibition of human UACC62 cells after 48 hrs by SRB assay; assay type: functional; settings: UACC-62, 48 h
[17] = tested on: 786-0; assay: Growth inhibition of human 786-0 cells after 48 hrs by SRB assay; assay type: functional; settings: 786-0, 48 h
[18] = tested on: T47D; assay: Growth inhibition of human T47D cells after 48 hrs by SRB assay; assay type: functional
[19] = tested on: RXF 393; assay: Growth inhibition of human […] cells after 48 hrs by SRB assay; assay type: functional; settings: RXF 393, 48 h
[20] = tested on: KM12; assay: Growth inhibition of human KM12 cells after 48 hrs by SRB assay; assay type: functional; settings: KM12, 48 h
[21] = tested on: HCT-15; assay: Growth inhibition of human HCT15 cells after 48 hrs by SRB assay; assay type: functional; settings: HCT-15, 48 h
[22] = tested on: PC-3; assay: Growth inhibition of human PC3 cells after 48 hrs by SRB assay; assay type: functional; settings: PC-3, 48 h
[23] = tested on: OVCAR-8; assay: Growth inhibition of human OVCAR8 cells after 48 hrs by SRB assay; assay type: functional; settings: OVCAR-8, 48 h
[24] = tested on: LOX IMVI; assay: Growth inhibition of human LOXIMVI cells after 48 hrs by SRB assay; assay type: functional
[25] = tested on: MDA-MB-231; assay: Growth inhibition of human MDA-MB-231 cells after 48 hrs by SRB assay; assay type: functional; settings: MDA-MB-231, 48 h
[26] = tested on: SR; assay: Cell cycle arrest in human SR cells assessed as accumulation at G0/G1 phase at 0.0153 uM after 24 hrs using propidium iodide staining by flow cytometry; assay type: functional, cell-based
[27] = tested on: HT-29; assay: Growth inhibition of human HT-29 cells after 48 hrs by SRB assay; assay type: functional; settings: HT-29, 48 h
[28] = tested on: MOLT-4; assay: Growth inhibition of human MOLT4 cells after 48 hrs by SRB assay; assay type: functional; settings: MOLT-4, 48 h
[29] = tested on: IGROV-1; assay: Growth inhibition of human IGROV1 cells after 48 hrs by SRB assay; assay type: functional; settings: IGROV-1, 48 h
[30] = tested on: SF-295; assay: Growth inhibition of human SF295 cells after 48 hrs by SRB assay; assay type: functional; settings: SF-295, 48 h
[31] = tested on: NCI/ADR-RES; assay: Growth inhibition of human NCI/ADR-RES cells after 48 hrs by SRB assay; assay type: functional
[32] = tested on: DU-145; assay: Growth inhibition of human DU145 cells after 48 hrs by SRB assay; assay type: functional; settings: DU-145, 48 h
[33] = tested on: SR; assay: Growth inhibition of human SR cells after 48 hrs by SRB assay; assay type: functional
[34] = tested on: HOP-62; assay: Growth inhibition of human HOP62 cells after 48 hrs by SRB assay; assay type: functional; settings: HOP-62, 48 h
[35] = tested on: MDA-MB-435; assay: Growth inhibition of human MDA-MB-435 cells after 48 hrs by SRB assay; assay type: functional; settings: MDA-MB-435, 48 h
[36] = tested on: OVCAR-5; assay: Growth inhibition of human OVCAR5 cells after 48 hrs by SRB assay; assay type: functional; settings: OVCAR-5, 48 h
[37] = tested on: ACHN; assay: Growth inhibition of human ACHN cells after 48 hrs by SRB assay; assay type: functional
[38] = tested on: SF-539; assay: Growth inhibition of human SF539 cells after 48 hrs by SRB assay; assay type: functional; settings: SF-539, 48 h
[39] = tested on: NCI-H522; assay: Growth inhibition of human NCI-H522 cells after 48 hrs by SRB assay; assay type: functional; settings: NCI-H522, 48 h
[40] = tested on: A498; assay: Growth inhibition of human A498 cells after 48 hrs by SRB assay; assay type: functional; settings: A498, 48 h
[41] = tested on: Malme-3M; assay: Growth inhibition of human MALME-3M cells after 48 hrs by SRB assay; assay type: functional
[42] = tested on: UACC-257; assay: Growth inhibition of human UACC257 cells after 48 hrs by SRB assay; assay type: functional; settings: UACC-257, 48 h
[43] = tested on: HCC 2998; assay: Growth inhibition of human HCC2998 cells after 48 hrs by SRB assay; assay type: functional; settings: HCC 2998, 48 h
[44] = tested on: NCI-H322M; assay: Growth inhibition of human NCI-H322M cells after 48 hrs by SRB assay; assay type: functional
[45] = tested on: NCI-H23; assay: Growth inhibition of human NCI-H23 cells after 48 hrs by SRB assay; assay type: functional; settings: NCI-H23, 48 h
[46] = read-out: LC50 (the source's name)

## CCCCOc1ccc(NC(=O)n2nc(N)c3ccccc32)cc1
[1]
  GI50: 30.5 µM
[2]
  GI50: 15.2 µM
[3]
  GI50: 18.6 µM
[4]
  GI50: 18.6 µM
[5]
  GI50: 2.72 µM
  TGI: 30.8 µM
[5]; [46]
  CC50: > 100 µM
[6]
  GI50: 42.7 µM
[7]
  GI50: 23.5 µM
[8]
  GI50: 28.3 µM
[9]
  GI50: 23.1 µM
[10]
  GI50: 21.2 µM
[11]
  GI50: 15.7 µM
[12]
  GI50: 14.5 µM
[13]
  GI50: 13.9 µM
[14]
  GI50: 15.9 µM
[15]
  GI50: 32.6 µM
[16]
  GI50: 14.7 µM
[17]
  GI50: 21 µM
[18]
  GI50: 14.8 µM
[19]
  GI50: 29.6 µM
[20]
  GI50: 11.3 µM
[21]
  GI50: 15.5 µM
[22]
  GI50: 14.9 µM
[23]
  GI50: 35.9 µM
[24]
  GI50: 12.2 µM
[25]
  GI50: 13.8 µM
[26]
  Activity: Active
[27]
  GI50: 13.5 µM
[28]
  GI50: 4.48 µM
  TGI: 46.2 µM
[28]; [46]
  CC50: > 100 µM
[29]
  GI50: 35.5 µM
[30]
  GI50: 21.7 µM
[31]
  GI50: 23.7 µM
[32]
  GI50: 25 µM
[33]
  GI50: 16 µM
[34]
  GI50: 20.8 µM
[35]
  GI50: 19.1 µM
[36]
  GI50: 20 µM
[37]
  GI50: 22.8 µM
[38]
  GI50: 17.8 µM
[39]
  GI50: 27.4 µM
[40]
  GI50: 19 µM
[41]
  GI50: 14.7 µM
[42]
  GI50: 29.2 µM
[43]
  GI50: 19 µM
[44]
  GI50: 20.6 µM
[45]
  GI50: 19.4 µM
